Data on 2 substances can be found in US20060270591A1, “Androgen receptor coregulators” (priority 2002, published 2006).

In experiment [1] the test system is AR. As to the kind of experiment: AR transactivation reporter assay (CAT/luciferase) (Example 3). The experiment is classed as cell-based, human. As to the method:
21. […] Further adding GAL-DBD (lane 1 and 2) or GAL-DBD-ARA70N with wild type (lane 3 and 4) or mutant (lane 5-8) FXXLF motifs to the cells. (B) Effect of wild type and mutant FXXLF motifs ARA70N on AR transactivation in COS-1 cells. […] 0.5 ng SV40-Renila Luciferase was used as an internal control. Relative luciferase activity was calculated by dual luciferase system.
411. Human prostate cancer DU145 and PC-3 cells were maintained in Dulbecco's Minimum Essential Medium (DMEM) containing penicillin (25 U/ml), streptomycin (25 μg/ml), and 5% fetal calf serum (FCS). Human LNCaP cells were maintained in RPMI containing penicillin (25 U/ml), streptomycin (25 μg/ml), and 10% FCS. Transfections were performed using the calcium phosphate precipitation method, as previously described (Dynlacht et al. (1991) Cell 66, 563-576). Briefly, 4×10^5 cells were plated on 60-mm dishes 24 hours before transfection, and the medium was changed to DMEM with 5% charcoal-dextran stripped FCS (CS-FBS) one hour before transfection. Transfection medium contained a constant amount of reporter plasmid and indicated amounts of pSG5-receptor, ARA70, or pCMX-GAL fusion construct using pSG5 as a carrier to provide equal amounts of transfected DNA. […] After another 24 hours, the cells were harvested for chloramphenicol transferase (CAT) or luciferase assays. At least three independent experiments were carried out in each case. Superfect (Qiagen) was used for transfection in LNCaP cells. The transfection conditions followed the manufacturer's protocol. Cell extracts were prepared and assayed for CAT or luciferase activity (Promega) and normalized against β-galactosidase or Renilla luciferase activity as indicated. All data were the mean±SD results from three to six independent experiments.
For orientation: Reporter assays use an easily measured gene product as a stand-in for the process of interest.

Experiment [2] deals with AR. The settings on record: CV-1 cells; reported by others; cited from earlier work.
Sequence of AR (P10275 whole entry): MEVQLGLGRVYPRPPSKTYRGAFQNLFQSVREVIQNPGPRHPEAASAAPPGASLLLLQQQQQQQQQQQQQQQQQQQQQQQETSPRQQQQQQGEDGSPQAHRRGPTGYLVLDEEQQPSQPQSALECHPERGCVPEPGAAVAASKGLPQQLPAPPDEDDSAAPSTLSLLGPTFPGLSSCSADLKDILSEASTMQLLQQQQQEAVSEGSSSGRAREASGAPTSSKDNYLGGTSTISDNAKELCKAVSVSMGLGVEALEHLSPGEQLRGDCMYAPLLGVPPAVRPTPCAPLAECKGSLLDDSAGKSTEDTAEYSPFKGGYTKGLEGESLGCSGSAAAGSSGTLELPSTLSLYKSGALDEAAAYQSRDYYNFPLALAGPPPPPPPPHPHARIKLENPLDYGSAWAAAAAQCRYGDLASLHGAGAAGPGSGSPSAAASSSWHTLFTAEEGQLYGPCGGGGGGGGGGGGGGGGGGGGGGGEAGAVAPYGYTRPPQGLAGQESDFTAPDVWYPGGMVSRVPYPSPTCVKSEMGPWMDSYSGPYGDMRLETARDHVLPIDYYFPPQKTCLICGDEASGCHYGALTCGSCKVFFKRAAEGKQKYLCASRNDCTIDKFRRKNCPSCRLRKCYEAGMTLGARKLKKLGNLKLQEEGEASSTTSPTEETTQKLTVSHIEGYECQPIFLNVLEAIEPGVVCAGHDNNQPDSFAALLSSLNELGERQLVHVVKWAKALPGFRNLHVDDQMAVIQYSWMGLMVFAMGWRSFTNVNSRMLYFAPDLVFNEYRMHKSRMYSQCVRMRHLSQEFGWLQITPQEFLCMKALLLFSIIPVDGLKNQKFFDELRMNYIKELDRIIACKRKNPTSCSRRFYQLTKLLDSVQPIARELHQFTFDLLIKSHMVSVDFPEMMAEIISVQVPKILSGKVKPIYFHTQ
Experiment [3] deals with T1, PPAR-γ (Homo sapiens, UniProt P37231).
T1 sequence (P37231 1-505): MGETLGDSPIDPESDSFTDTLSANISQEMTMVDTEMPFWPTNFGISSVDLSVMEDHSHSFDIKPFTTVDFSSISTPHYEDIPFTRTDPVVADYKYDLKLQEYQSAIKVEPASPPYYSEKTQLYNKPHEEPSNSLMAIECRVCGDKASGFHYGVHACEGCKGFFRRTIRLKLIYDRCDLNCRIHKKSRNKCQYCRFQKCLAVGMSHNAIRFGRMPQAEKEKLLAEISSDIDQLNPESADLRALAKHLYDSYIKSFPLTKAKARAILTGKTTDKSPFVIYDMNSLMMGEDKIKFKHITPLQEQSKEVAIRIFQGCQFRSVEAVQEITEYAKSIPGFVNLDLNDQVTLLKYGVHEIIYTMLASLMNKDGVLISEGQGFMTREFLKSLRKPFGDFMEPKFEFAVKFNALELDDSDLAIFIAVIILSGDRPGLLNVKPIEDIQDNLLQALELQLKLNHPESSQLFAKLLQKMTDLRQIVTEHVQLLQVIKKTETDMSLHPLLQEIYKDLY
The experiment can be described thus: PPAR-γ transactivation reporter assay (PPRE-Luc) with SV. The experiment is classed as cell-based. As to the method: 42. […] (A) The interaction of SV with AR, GR, PPAR-γ and ER-α is tested in mammalian two-hybrid assay. One μg plasmids expressing Gal4(DBD)-AR, GR, PPAR-γ or ER-α was co-transfected with 4 μg plasmids expressing VP16 or VP16-SVn to COS-1 cells. […] The assay method was the same as described in FIG. 29. Relative activities of ligand treatment to EtOH treatment are shown. (B) The coactivation function of SV in different receptors was assayed using reporter gene study. MMTV-Luc, PPRE-Luc, ERE-Luc are the reporter genes for AR, GR, PPAR-γ, and ER-α respectively. Lanes 1, 5, 9 and 13 are regarded as 1 fold in each panel.
475. In AR transactivation activity assays, transfections were performed using SuperFect (Qiagen, Chatsworth, Calif.) following protocols described in manual provided by Qiagen. Briefly, cells were plated on 35 mm dishes and after 24 h were transfected using the SuperFect kit. The total DNA amount was adjusted to 2 μg with pSG5 or pEGFP vectors. The medium was changed to DMEM with 10% CD-FBS 2 h after transfection. After 24 h, the DMEM with 10% CD-FBS was changed again, and the cells were treated with various steroids. Cells were harvested after 24 h for dual-luciferase assay as described in protocol provided by Promega. At least three independent experiments were carried out in each case.

The subject of experiment [4] is p27^KIP1. As to the kind of experiment: Western blot of p27KIP1 in PC-3(AR2) cells. The format is cell-based, human. The note with it: 10 nM DHT. As to the method:
41. […] (A) C2C12, COS-1, DU145 and PC-3 cell lines were co-transfected with 30 ng pSG5-AR, 0.5 μg MMTV-Luc, 1 ng pRL-SV40, various amounts of pSG5-bSV as indicated, and adjusted to total amount of 2 μg DNA with pSG5. The assay method was the same as FIG. 2. After measuring the luciferase activity, values relative to lane 1 were calculated. Results are the mean±S.D. of three independent experiments. (B) PC-3 was co-transfected with 30 ng pSG5-AR, 1.5 μg pSG5-bSV, 1 ng pRL-SV40, and 0.5 μg reporter gene as indicated by using SuperFect. […] (C) PC-3(AR2) cell line was transfected with EGFP or EGFP-bSV expressing vector using SuperFect. […] Proteins extracted from cells were loaded on 15% SDS-PAGE and analyzed by western blotting. The intensity of each p27 band was quantified and normalized with control protein which is a non-specific band pick up by the antibody in the same blot. The relative intensities to lane 1 were calculated.
478. Protein samples extracted from the cell were separated on 15% SDS-PAGE and transferred to nitrocellulose membranes. Membranes were incubated 1 h with 5% non-fat milk in TBST at room temperature, followed by the antibodies against p27^(KIP1) (Santa Cruz), followed by AP conjugated goat-antimouse antibody. Blots were developed using the AP developing reagent from Bio-Rad. Band intensity was quantitated by Collage® image analysis software (Fotodyne Inc.).

Consider “ARA70: ligand-enhanced AR coregulator, full length ARA70”, for which the “enhancement of AR transactivation” value is reported as 8 fold in experiment [1] (COS-1 cells); 8 fold in experiment [1] (CV-1 cells); 8-10 fold in experiment [1] (DU145 cells, depending on the ratio of AR to ARA70); 6 fold in experiment [1] (PC-3 cells). The “enhancement of AR activity” value in experiment [2] was 2-3 fold.
On to “SV: supervillin, 205 kDa actin binding protein; bovine SV (a.a. 1-1792) used in reporter assays”, for which, in experiment [3], the “effect on the transactivation of PPAR-γ” value is “little effect”. Besides, the “p27^(KIP1) protein expression” value in experiment [4] is recorded as “further enhanced p27^(KIP1) protein expression”.
